# Results taken from US8318928B2, “Fused imidazole carboxamides as TRPV3 modulators” (Glenmark Pharmaceuticals, S.A., priority 2008, dated 2012).
# Target: T1, Human TRPV3 expressing CHO cells (Homo sapiens, UniProt Q8NET8)
# T1 construct: expressed in transfected cells; host or cells: CHO cells, kept under G-418 selection
# T1 sequence (Q8NET8 1-790): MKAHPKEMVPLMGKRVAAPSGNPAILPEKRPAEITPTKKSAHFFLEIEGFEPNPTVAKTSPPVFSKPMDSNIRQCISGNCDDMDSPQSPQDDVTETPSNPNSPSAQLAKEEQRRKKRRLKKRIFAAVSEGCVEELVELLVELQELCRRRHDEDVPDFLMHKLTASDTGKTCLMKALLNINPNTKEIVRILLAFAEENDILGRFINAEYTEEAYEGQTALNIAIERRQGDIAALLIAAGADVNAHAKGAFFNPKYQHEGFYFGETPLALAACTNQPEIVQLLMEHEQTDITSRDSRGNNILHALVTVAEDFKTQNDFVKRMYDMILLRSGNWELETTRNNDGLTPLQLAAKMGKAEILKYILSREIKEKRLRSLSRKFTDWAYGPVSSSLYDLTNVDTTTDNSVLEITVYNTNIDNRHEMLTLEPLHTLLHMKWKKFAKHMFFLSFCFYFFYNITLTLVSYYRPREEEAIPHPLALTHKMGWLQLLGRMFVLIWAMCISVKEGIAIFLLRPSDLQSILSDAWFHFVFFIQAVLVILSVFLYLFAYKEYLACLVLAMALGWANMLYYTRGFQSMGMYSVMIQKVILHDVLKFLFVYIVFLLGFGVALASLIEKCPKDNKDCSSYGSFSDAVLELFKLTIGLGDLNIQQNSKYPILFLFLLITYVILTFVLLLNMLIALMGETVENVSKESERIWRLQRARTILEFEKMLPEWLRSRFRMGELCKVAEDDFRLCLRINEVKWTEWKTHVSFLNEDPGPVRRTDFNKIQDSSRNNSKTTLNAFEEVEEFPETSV
# Assay: 45Calcium uptake assay: inhibition of 2-APB induced cellular uptake of radioactive calcium
# Type: cell-based
# Settings: 2-APB 500 μM; for inhibition at 1 µM: read-out: Percentage inhibition at 1.0 μM; for inhibition at 10 µM: read-out: Percentage inhibition at 10.0 μM; for IC50: class symbols
# Source text: Certain illustrative compounds within the scope of the present invention are screened for TRPV3 activity according to a modified procedure described in (a) Tóth, A. et al. Life Sciences 2003, 73, 487-498. (b) McNamara C, R. et al. Proc. Natl. Acad. Sci. U.S.A., 2007, 104, 13525-13530. The screening of the compounds may be carried out by other methods and procedures known to persons skilled in the art.
# Screening for TRPV3 Antagonist Using the ^45Calcium Uptake Assay
# The inhibition of TRPV3 receptor activation was followed as inhibition of 2-aminoethxydiphenylborate (2-APB) induced cellular uptake of radioactive calcium. Test compounds were dissolved in dimethyl sulfoxide (DMSO) to prepare 20 mM stock solution and then diluted using plain medium with DMEM/F-12 containing 1.8 mM CaCl2 to get desired concentration. Final concentration of DMSO in the reaction was 0.5% (v/v). Human TRPV3 expressing CHO cells were grown in DMEM/F-12 medium with 10% FBS, 1% penicillin-streptomycin solution, 400 μg/mL of G-418. Cells were seeded 24 h prior to the assay in 96 well plates so as to get ˜50,000 cells per well on the day of experiment. Cells were treated with test compounds for 10 minutes followed by addition of 2-APB at a final concentration of 500 μM and 5 μCi/mL ^45Ca^+2 for 4 minutes. Cells were washed and lysed using buffer containing 1% Triton X-100, 0.1% deoxycholate and 0.1% SDS. Radioactivity in the lysate was measured in Packardt Top count after addition of liquid scintillant. Concentration response curves were plotted as a % of maximal response obtained in the absence of test antagonist. IC50 value was calculated from concentration response curve by nonlinear regression analysis using GraphPad PRISM software.
# Percentage inhibition at concentrations of 1.0 μM and 10.0 μM are given in the table along with IC50 (nM) details for selected examples.
Compound,Percentage inhibition at 1.0 μM (compound at 1.0 μM) [%],Percentage inhibition at 10.0 μM (compound at 10.0 μM) [%],inhibition at 1 µM (compound at 1.0 μM) [%],inhibition at 10 µM (compound at 10.0 μM) [%],IC50 [nM]
"2-{(E)-2-[3-(Difluoromethoxy)-2-(2,2-dimethylpropoxy)phenyl]vinyl}-N-[4-(trifluoro-methyl)-1,3-thiazol-2-yl]imidazo[1,2-c]pyridine-3-carboxamide [Example 38]",87.67,97.11,–,–,–
"COc1cccc(/C=C/c2nc3sccn3c2C(=O)Nc2ccc(OC(F)(F)F)cc2)c1OCC1CC1 [Example 1, 6-[(E)-2-(2-Cyclopropylmethoxy-3-methoxyphenyl)vinyl]-N-[4-(trifluoromethoxy)phenyl]imidazo[2,1-b][1,3]thiazole-5-carboxamide]",–,–,9.3,38.6,–
"COc1cccc(/C=C/c2nc3sccn3c2C(=O)Nc2nc(C(F)(F)F)cs2)c1OCC1CC1 [Example 2, 6-[(E)-2-(2-Cyclopropylmethoxy-3-methoxyphenyl)vinyl]-N-[4-(trifluoromethyl)-1,3-thiazol-2-yl]imidazo[2,1-b][1,3]thiazole-5-carboxamide]",–,–,73.2,97.6,250 to 1000
"COc1cccc(/C=C/c2nc3sccn3c2C(=O)N2CCCc3ccccc32)c1OCC1CC1 [Example 3, 1-({6-[(E)-2-(2-Cyclopropylmethoxy-3-methoxyphenyl)vinyl]imidazo[2,1-b][1,3]thiazol-5-yl}carbonyl)-1,2,3,4-tetrahydroquinoline]",–,–,34.6,90.6,–
"COc1cccc(/C=C/c2nc3sccn3c2C(=O)N2CCN(c3ccc(C(F)(F)F)cn3)CC2)c1OCC1CC1 [Example 4, 6-[(E)-2-(2-Cyclopropylmethoxy-3-methoxyphenyl)vinyl]imidazo[2,1-b][1,3]thiazol-5-yl-4-(5-trifluoromethyl-2-pyridyl)piperazinomethanone]",–,–,36.2,91.7,–
COc1cccc(/C=C/c2nc3sccn3c2C(=O)N2CCN(c3ccc(C#N)cn3)CC2)c1OCC1CC1 [Example 5],–,–,5.32,38.2,–
"COc1cccc(/C=C/c2nc3sccn3c2C(=O)Nc2nc(C(F)(F)F)cs2)c1OCC(C)C [Example 6, 6-{(E)-2-[2-(Isobutoxy)-3-methoxyphenyl]vinyl}-N-[4-(trifluoromethyl)-1,3-thiazol-2-yl]imidazo[2,1-b][1,3]thiazole-5-carboxamide]",–,–,93,98.8,250 to 1000
"COc1cccc(/C=C/c2nc3sccn3c2C(=O)Nc2nc(C(F)(F)F)cs2)c1OCC(C)(C)C [Example 7, 6-{(E)-2-[2-(2,2-Dimethylpropoxy)-3-methoxyphenyl]vinyl}-N-[4-(trifluoromethyl)-1,3-thiazol-2-yl]imidazo[2,1-b][1,3]thiazole-5-carboxamide]",–,–,95.5,99.5,< 100
"COc1cccc(/C=C/c2nc3sccn3c2C(=O)Nc2nc(C(C)(C)C)cs2)c1OCC(C)(C)C [Example 8, 6-{(E)-2-[2-(2,2-Dimethylpropoxy)-3-methoxyphenyl]vinyl}-N-[4-(tert-butyl)-1,3-thiazol-2-yl]imidazo[2,1-b][1,3]thiazole-5-carboxamide]",–,–,88.1,91.1,< 100
"COc1cccc(/C=C/c2nc3sccn3c2C(=O)Nc2nc(C)cs2)c1OCC(C)(C)C [Example 10, 6-{(E)-2-[2-(2,2-Dimethylpropoxy)-3-methoxyphenyl]vinyl}-N-(4-methyl-1,3-thiazol-2-yl)imidazo[2,1-b][1,3]thiazole-5-carboxamide]",–,–,69.3,80.6,250 to 1000
"CCN(C(=O)c1c(/C=C/c2cccc(OC)c2OCC(C)(C)C)nc2sccn12)c1nc(C(F)(F)F)cs1 [Example 11, N-Ethyl-6-{(E)-2-[2-(2,2-dimethylpropoxy)-3-methoxyphenyl]vinyl}-N-[4-(trifluoro-methyl)-1,3-thiazol-2-yl]imidazo[2,1-b][1,3]thiazole-5-carboxamide]",–,–,75.1,84.8,< 100
